The values below come from US6509328B1, “Glutamate receptor antagonists” (Hoffmann-La Roche Inc., priority 1999, dated 2003).

The target in one data set is T1, rat mGlu2 receptor (Rattus norvegicus, UniProt P31421).
T1 construct: expressed in transfected cells; vector pcDNA I-amp (pcD1mGR2)
The data set can be described thus: [3H]-LY354740 binding on mGlu2 transfected CHO cell membranes. From the text: [^3H]-LY354740 Binding on mGlu2 Transfected CHO Cell Membranes
Transfection and Cell Culture
cDNA encoding the rat mGlu2 receptor protein in pBluescript II was obtained from Prof. S. Nakanishi (Kyoto, Japan), and subcloned into the eukaryotic expression vector pcDNA I-amp from Invitrogen (N V Leek, The Netherlands). This vector construct (pcD1mGR2) was co-transfected with a psvNeo plasmid encoding the gene for neomycin resistance, into CHO cells by a modified calcium phosphate method described by Chen & Okayama (1988). The cells were maintained in Dulbecco's Modified Eagle medium with reduced L-glutamine (2 mM final concentration) and 10% dialysed foetal calf serum from Gibco BRL (Basel, Switzerland). Selection was made in the presence of […] (1000 ug/ml final). Clones were identified by reverse transcription of 5 μg total RNA, followed by PCR using mGlu2 receptor specific primers 5′-[…]-3′ and 5′-[…]-3′ in 60 mM Tris HCl (pH 10), 15 mM (NH4)2SO4, 2 mM MgCl2, 25 units/ml Taq Polymerase with 30 cycles annealing at 60° C. for 1 min., extension at 72° C. for 30s, and 1 min. 95° C. denaturation.
Cells, cultured as above, were harvested and washed three times with cold PBS and frozen at −80° C. The pellet was resuspended in cold 20 mM HEPES-NaOH buffer containing 10 mM EDTA (pH 7.4), and homogenised with a polytron (Kinematica, AG, Littau, Switzerland) for 10s at 10,000 rpm. After centrifugation for 30 min. at 4° C., the pellet was washed once with the same buffer, and once with cold 20 mM HEPES-NaOH buffer containing 0.1 mM EDTA, (pH 7.4). Protein content was measured using the Pierce method (Socochim, Lausanne, Switzerland) using bovine serum albumin as standard.
After thawing, the membranes were resuspended in cold 50 mM Tris-HCl buffer containing 2 mM MgCl2 and 2 mM CaCl2, (pH 7) (binding buffer). The final concentration of the membranes in the assays was 25 μg protein/ml. Inhibition experiments were performed with membranes incubated with 10 nM [^3H]-LY354740 at room temperature, for 1 hour, in presence of various concentrations of the compound to be tested. Following the incubations, membranes were filtered onto Whatmann GF/C glass fiber filters and washed 5 times with cold binding buffer. Non specific binding was measured in the presence of 10 μM DCG IV (TOCRIS No. 0975). After transfer of the filters into plastic vials containing 10 ml of Ultima-gold scintillation fluid (Packard, Zürich, Switzerland), the radioactivity was measured by liquid scintillation in a Tri-Carb 2500 TR counter (Packard, Zürich, Switzerland).
The inhibition curves were fitted with a four parameter logistic equation giving IC50 values, and Hill coefficients.

T1 sequence (P31421 19-872): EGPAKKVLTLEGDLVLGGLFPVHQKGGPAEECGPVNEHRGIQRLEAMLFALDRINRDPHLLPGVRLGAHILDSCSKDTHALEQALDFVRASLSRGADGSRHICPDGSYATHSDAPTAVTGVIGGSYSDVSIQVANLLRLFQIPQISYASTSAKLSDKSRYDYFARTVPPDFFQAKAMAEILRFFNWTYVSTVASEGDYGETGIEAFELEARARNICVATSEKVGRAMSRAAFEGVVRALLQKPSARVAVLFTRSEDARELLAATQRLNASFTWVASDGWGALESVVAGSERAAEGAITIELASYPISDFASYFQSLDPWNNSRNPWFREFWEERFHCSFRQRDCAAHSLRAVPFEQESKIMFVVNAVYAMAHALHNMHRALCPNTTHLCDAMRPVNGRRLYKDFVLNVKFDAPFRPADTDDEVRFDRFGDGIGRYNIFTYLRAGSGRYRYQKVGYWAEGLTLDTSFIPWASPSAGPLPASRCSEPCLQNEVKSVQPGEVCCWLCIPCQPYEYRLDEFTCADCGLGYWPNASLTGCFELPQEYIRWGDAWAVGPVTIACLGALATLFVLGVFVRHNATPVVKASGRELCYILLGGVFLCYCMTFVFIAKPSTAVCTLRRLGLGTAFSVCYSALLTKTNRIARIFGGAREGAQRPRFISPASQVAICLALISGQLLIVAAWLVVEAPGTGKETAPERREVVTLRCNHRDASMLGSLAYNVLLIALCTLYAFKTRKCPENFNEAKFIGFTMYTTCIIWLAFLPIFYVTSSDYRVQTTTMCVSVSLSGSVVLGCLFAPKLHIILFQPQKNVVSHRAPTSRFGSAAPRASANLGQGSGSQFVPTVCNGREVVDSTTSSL

A word on the Ki: it is a measure of affinity in units of concentration, obtained from inhibition or displacement. A lower Ki goes with a stronger hold on the target. At rat mGlu2 receptor, `O=C1CC(c2cccc(Cl)c2)=Nc2ccc(C#Cc3ccccc3)cc2N1` [Example 5, 4-(3-Chloro-phenyl)-8-phenylethynyl-1,3-dihydro-benzo[b][1,4]diazepin-2-one] had an inhibition constant (Ki) of 40 nM.

As for `N#Cc1cccc(C2=Nc3ccc(-c4ccc(F)cc4)cc3NC(=O)C2)c1` [Example 57, 3-[7-(4-Fluoro-phenyl)-4-oxo-4,5-dihydro-3H-benzo[b][1,4]diazepin-2-yl]-benzonitrile], the affinity on rat mGlu2 receptor, expressed as Ki, was 55 nM.

For `O=C1CC(c2cccc(-n3cnnn3)c2)=Nc2ccc(C#Cc3ccc(F)cc3)cc2N1` [Example 87, 8-(4-Fluoro-phenylethynyl)-4-(3-tetrazol-1-yl-phenyl)-1,3-dihydro-benzo [b][1,4]diazepin-2-one], the inhibition constant (Ki) at rat mGlu2 receptor came to 36 nM.

`N#Cc1cc(C2=Nc3ccc(C#Cc4ccccc4)cc3NC(=O)C2)ccn1` [Example 98, 4-(4-Oxo-7-phenylethynyl-4,5-dihydro-3H-benzo [b][1,4]diazepin-2-yl)-pyridine-2-carbonitrile] displayed an inhibitory constant (Ki) at rat mGlu2 receptor of 39 nM.

In the case of `O=C1CC(c2cccc(-n3ccnn3)c2)=Nc2ccc(-c3ccccc3F)cc2N1` [Example 110, 8-(2-Fluoro-phenyl)-4-(3-[1,2,3]triazol-1-yl-phenyl)-1,3-dihydro-benzo [b][1,4]diazepin-2-one], the affinity at rat mGlu2 receptor corresponds to a Ki of 8 nM.

`O=C1CC(c2cccc(-n3ccnn3)c2)=Nc2ccc(-c3ccc(F)cc3F)cc2N1` [Example 123, 8-(2,4-Difluoro-phenyl)-4-(3-[1,2,3]triazol-1-yl-phenyl)-1,3-dihydro-benzo [b][1,4]diazepin-2-one]: at rat mGlu2 receptor, the Ki is 10 nM.

`O=C1CC(c2cccc(-n3ccnn3)c2)=Nc2ccc(-c3cccc(F)c3F)cc2N1` [Example 129, 8-(2,3-Difluoro-phenyl)-4-(3-[1,2,3]triazol-1-yl-phenyl)-1,3-dihydro-benzo[b][1,4]diazepin-2-one] returned a Ki at rat mGlu2 receptor of 13 nM.

The term melting point denotes the temperature, or range, at which the solid turns liquid. `CC(C)(C)C(=O)N1CC=C(C#Cc2ccc3c(c2)NC(=O)CC(c2cccc(C#N)c2)=N3)CC1` [Example 143, 3-{7-[1-(2,2-Dimethyl-propionyl)-1,2,3,6-tetrahydro-pyridin-4-ylethynyl]-4-oxo-4,5-dihydro-3H-benzo [b][1,4]diazepin-2-yl}-benzonitrile]: the melting point came to 219 °C.

For `N#Cc1cccc(C2=Nc3ccc(C#CC4=CC(=O)CCC4)cc3NC(=O)C2)c1` [Example 144, 3-[4-Oxo-7-(3-oxo-cyclohex-1-enylethynyl)-4,5-dihydro-3H-benzo [b][1,4]diazepin-2-yl]-benzonitrile], the melting point turned out to be 110 °C.

In turn, `N#Cc1cccc(C2=Nc3ccc(C#Cc4ccc(F)cc4)cc3NC(=O)C2)c1` [Example 145, 3-[7-(4-Fluoro-phenylethynyl)-4-oxo-4,5-dihydro-3H-benzo [b][1,4]diazepin-2-yl]-benzonitrile] registered a melting point of 245 to 246 °C.

For the compound `CN1CCN(C(=O)c2cccc(C3=Nc4ccc(C#Cc5ccccc5)cc4NC(=O)C3)c2)CC1` [Example 147, 4-[3-(4-Methyl-piperazine-1-carbonyl)-phenyl]-8-phenylethynyl-1,3-dihydro-benzo[b][1,4]diazepin-2-one], the melting point was 168 to 172 °C (dec.).

For `NC(=O)c1cccc(C2=Nc3ccc(C#Cc4ccccc4)cc3NC(=O)C2)c1` [Example 148, 3-(4-Oxo-7-phenylethynyl-4,5-dihydro-3H-benzo [b][1,4]diazepin-2-yl)-benzamide], the melting point was > 250 °C (dec.).

On to `NC(=S)c1cccc(C2=Nc3ccc(-c4ccc(F)cc4)cc3NC(=O)C2)c1` [Example 149, 3-[7-(4-Fluoro-phenyl)-4-oxo-4,5-dihydro-3H-benzo [b][1,4]diazepin-2-yl]-thiobenzamide], for which the melting point was 267 to 270 °C (dec.).

Consider `NC(=S)c1cccc(C2=Nc3ccc(-c4ccccc4F)cc3NC(=O)C2)c1` [Example 150, 3-[7-(2-Fluoro-phenyl)-4-oxo-4,5-dihydro-3H-benzo[b][1,4]diazepin-2-yl]-thiobenzamide], for which the melting point is 232 to 234 °C (dec.).

Take `Cc1csc(-c2cccc(C3=Nc4ccc(-c5ccc(F)cc5)cc4NC(=O)C3)c2)n1` [Example 152, 8-(4-Fluoro-phenyl)-4-[3-(4-methyl-thiazol-2-yl)-phenyl]-1,3-dihydro-benzo [b][1,4]diazepin-2-one]: the melting point is 259 to 261 °C (dec.).

Regarding `CCOC(=O)c1csc(-c2cccc(C3=Nc4ccc(-c5ccc(F)cc5)cc4NC(=O)C3)c2)n1` [Example 153, 2-{3-[7-(4-Fluoro-phenyl)-4-oxo-4,5-dihydro-3H-benzo [b][1,4]diazepin-2-yl]-phenyl}-thiazole-4-carboxylic Acid Ethyl Ester], the melting point was 236 to 238 °C (dec.).

`CCOC(=O)c1csc(-c2cccc(C3=Nc4ccc(-c5ccccc5F)cc4NC(=O)C3)c2)n1` [Example 154, 2-{3-[7-(2-Fluoro-phenyl)-4-oxo-4,5-dihydro-3H-benzo [b][1,4]diazepin-2-yl]-phenyl}-thiazole-4-carboxylic Acid Ethyl Ester] showed a melting point of 172 to 175 °C.

As to `CCOC(=O)c1csc(-c2cc(C3=Nc4ccc(-c5ccc(F)cc5)cc4NC(=O)C3)ccn2)n1` [Example 155, 2-{4-[7-(4-Fluoro-phenyl)-4-oxo-4,5-dihydro-3H-benzo[b][1,4]diazepin-2-yl]-pyridin-2-yl}-thiazole-4-carboxylic Acid Ethyl Ester], the melting point was 238 to 240 °C (dec.).

As to `O=C1CC(c2cccc(-c3nc(CO)cs3)c2)=Nc2ccc(-c3ccc(F)cc3)cc2N1` [Example 156, 8-(4-Fluoro-phenyl)-4-[3-(4-hydroxymethyl-thiazol-2-yl)-phenyl]-1,3-dihydro-benzo[b][1,4]diazepin-2-one], the melting point is 235 to 239 °C (dec.).

`O=C1CC(c2cccc(-c3nc(CO)cs3)c2)=Nc2ccc(-c3ccccc3F)cc2N1` [Example 157, 8-(2-Fluoro-phenyl)-4-[3-(4-hydroxymethyl-thiazol-2-yl)-phenyl]-1,3-dihydro-benzo[b][1,4]diazepin-2-one]: affinity on rat mGlu2 receptor was put at a Ki of 16 nM.

`O=C1CC(c2ccnc(-c3nc(CO)cs3)c2)=Nc2ccc(-c3ccc(F)cc3)cc2N1` [Example 158, 8-(4-Fluoro-phenyl)-4-[2-(4-hydroxymethyl-thiazol-2-yl)-pyridin-4-yl]-1,3-dihydro-benzo[b][1,4]diazepin-2-one] came in with a melting point of 225 to 229 °C.

As for `O=C1CC(c2cccc(-c3nc(C(=O)NCCO)cs3)c2)=Nc2ccc(-c3ccc(F)cc3)cc2N1` [Example 161, 2-{3-[7-(4-Fluoro-phenyl)-4-oxo-4,5-dihydro-3H-benzo [b][1,4]diazepin-2-yl]-phenyl}-thiazole-4-carboxylic Acid (2-hydroxy-ethyl)-amide], the melting point was 238 to 245 °C (dec.).

As to `Cc1nc(-c2cccc(C3=Nc4ccc(-c5ccc(F)cc5)cc4NC(=O)C3)c2)sc1C(=O)NCCO` [Example 162, 2-{3-[7-(4-Fluoro-phenyl)-4-oxo-4,5-dihydro-3H-benzo [b][1,4]diazepin-2-yl]-phenyl}-4-methyl-thiazole-5-carboxylic Acid (2-hydroxy-ethyl)-amide], the melting point is 248 to 251 °C (dec.).

In the case of `Cc1nnc(-c2cccc(C3=Nc4ccc(-c5ccc(F)cc5)cc4NC(=O)C3)c2)o1` [Example 165, 8-(4-Fluoro-phenyl)-4-[3-(5-methyl-[1,3,4]oxadiazol-2-yl)-phenyl]-1,3-dihydro-benzo[b][1,4]diazepin-2-one], the melting point is 254 to 256 °C (dec.).

Regarding `O=C1CC(c2cccc(-c3noc(CCCO)n3)c2)=Nc2ccc(-c3ccc(F)cc3)cc2N1` [Example 168, 8-(4-Fluoro-phenyl)-4-{3-[5-(3-hydroxy-propyl)-[1,2,4]oxadiazol-3-yl]-phenyl}-1,3-dihydro-benzo[b][1,4]diazepin-2-one], the melting point lay in the range of 220 to 222 °C.

Take `Cc1noc(-c2cccc(C3=Nc4ccc(-c5ccc(F)cc5)cc4NC(=O)C3)c2)n1` [Example 169, 8-(4-Fluoro-phenyl)-4-[3-(3-methyl-[1,2,4]oxadiazol-5-yl)-phenyl]-1,3-dihydro-benzo[b][1,4]diazepin-2-one]: the melting point lay in the range of 266 to 268 °C.
